Source: ChEMBL document CHEMBL1201861, “Genomics of Drug Sensitity in Cancer screening data, Wellcome Trust Sanger Institute”

Experiments:
Assay in all cases: cells
639-V = assay type: functional, cell-based; settings: Homo sapiens;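 note: growth inhibition of 639-V cells, read out with a cell viability assay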
Description: SANGER: Inhibition of human 639-V cell growth in a cell viability assay.

HCC1395 = assay type: functional, cell-based; settings: Homo sapiens;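 note: growth inhibition of HCC1395 cells, read out by a cell viability assay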
Description: SANGER: Inhibition of human HCC1395 cell growth in a cell viability assay.

SAS = assay type: functional, cell-based; settings: Homo sapiens;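 note: growth inhibition of SAS cells, read out with a cell viability assay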
Description: SANGER: Inhibition of human SAS cell growth in a cell viability assay.

DMS-273 = assay type: functional, cell-based; settings: Homo sapiens
Description: SANGER: Inhibition of human DMS-273 cell growth in a cell viability assay.

NCI-H2347 = assay type: functional, cell-based; settings: Homo sapiens;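 note: growth inhibition of the cell line, read out with a cell viability assay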
Description: SANGER: Inhibition of human NCI-H2347 cell growth in a cell viability assay.

HT-29 = assay type: functional, cell-based; settings: Homo sapiens;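 note: growth inhibition of human HT-29 cells, read out by a cell viability assay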
Description: SANGER: Inhibition of human HT-29 cell growth in a cell viability assay.

CAL-27 = assay type: functional, cell-based; settings: Homo sapiens;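 note: Viability-based readout, IC50 reflecting inhibition of CAL-27 cell growth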
Description: SANGER: Inhibition of human CAL-27 cell growth in a cell viability assay.

Detroit 562 = assay type: functional, cell-based; settings: Homo sapiens;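 note: growth inhibition of human Detroit 562 cells, read out by a cell viability assay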
Description: SANGER: Inhibition of human Detroit562 cell growth in a cell viability assay.

SW837 = assay type: functional, cell-based; settings: Homo sapiens;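 note: growth inhibition of SW837 cells, determined with a cell viability assay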
Description: SANGER: Inhibition of human SW837 cell growth in a cell viability assay.

SK-N-AS = assay type: functional, cell-based; settings: Homo sapiens;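 note: growth inhibition of human SK-N-AS cells, measured with a cell viability assay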
Description: SANGER: Inhibition of human SK-N-AS cell growth in a cell viability assay.

ACHN = assay type: functional, cell-based; settings: Homo sapiens;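 note: cell viability read-out used to gauge how strongly growth of human ACHN cells is suppressed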
Description: SANGER: Inhibition of human ACHN cell growth in a cell viability assay.

NB17 = assay type: functional, cell-based, Homo sapiens; settings: Homo sapiens, NB17;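 note: growth inhibition of NB17 cells, read out with a cell viability assay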
Description: SANGER: Inhibition of human NB17 cell growth in a cell viability assay.

HCC 2998 = assay type: functional, cell-based; settings: Homo sapiens;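 note: growth inhibition of human HCC2998 cells, measured with a cell viability read-out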
Description: SANGER: Inhibition of human HCC2998 cell growth in a cell viability assay.

VMRC-RCZ = assay type: functional, cell-based; settings: Homo sapiens;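 note: growth inhibition measured with a cell viability assay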
Description: SANGER: Inhibition of human VMRC-RCZ cell growth in a cell viability assay.

MDA-MB-157 = assay type: functional, cell-based; settings: Homo sapiens
Description: SANGER: Inhibition of human MDA-MB-157 cell growth in a cell viability assay.

NCI-H650 = assay type: functional, cell-based; settings: Homo sapiens;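 note: growth inhibition of NCI-H650 cells, read out by a viability assay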
Description: SANGER: Inhibition of human NCI-H650 cell growth in a cell viability assay.

SF-295 = assay type: functional, cell-based; settings: Homo sapiens;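 note: growth inhibition of SF-295 cells, read out with a cell viability assay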
Description: SANGER: Inhibition of human SF295 cell growth in a cell viability assay.

A2780 = assay type: functional, cell-based; settings: Homo sapiens;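 note: growth inhibition of A2780 cells, read out with a cell viability assay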
Description: SANGER: Inhibition of human A2780 cell growth in a cell viability assay.

PA-1 = assay type: functional, cell-based; settings: Homo sapiens;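 note: IC50 for suppression of PA-1 cell proliferation, determined with a cell viability read-out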
Description: SANGER: Inhibition of human PA-1 cell growth in a cell viability assay.

MC-IXC = assay type: functional, cell-based; settings: Homo sapiens;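 note: growth inhibition of MC-IXC cells, read out with a cell viability assay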
Description: SANGER: Inhibition of human MC-IXC cell growth in a cell viability assay.

J82 = assay type: functional, cell-based; settings: Homo sapiens;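 note: growth inhibition of J82 cells, read out with a cell viability assay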
Description: SANGER: Inhibition of human J82 cell growth in a cell viability assay.

NCI-H810 = assay type: functional, cell-based; settings: Homo sapiens;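 note: IC50 reflects inhibition of cancer cell line growth, read out with a cell viability assay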
Description: SANGER: Inhibition of human NCI-H810 cell growth in a cell viability assay.

UMUC3 = assay type: functional, cell-based; settings: Homo sapiens;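 note: growth inhibition of human UM-UC-3 cells, read out with a cell viability assay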
Description: SANGER: Inhibition of human UM-UC-3 cell growth in a cell viability assay.

A 172 = assay type: functional, cell-based; settings: Homo sapiens;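 note: growth inhibition of A172 cells, measured with a cell viability readout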
Description: SANGER: Inhibition of human A172 cell growth in a cell viability assay.

Panc1005 = assay type: functional, cell-based; settings: Homo sapiens;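 note: growth inhibition of human PANC-10-05 cells, measured by a cell viability assay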
Description: SANGER: Inhibition of human PANC-10-05 cell growth in a cell viability assay.

MDA-MB-415 = assay type: functional, cell-based; settings: Homo sapiens
ME-180 = assay type: functional, cell-based; settings: Homo sapiens;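 note: cell viability assay measuring growth inhibition of ME-180 cells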
Description: SANGER: Inhibition of human ME-180 cell growth in a cell viability assay.

HuP-T3 = assay type: functional, cell-based; settings: Homo sapiens;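 note: HuP-T3 cell growth inhibition, read out with a cell viability assay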
Description: SANGER: Inhibition of human HuP-T3 cell growth in a cell viability assay.

YKG-1 = assay type: functional, cell-based; settings: Homo sapiens;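 note: cell growth inhibition, read out with a viability assay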
Description: SANGER: Inhibition of human YKG-1 cell growth in a cell viability assay.

CP66-MEL = assay type: functional, cell-based; settings: Homo sapiens;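 note: growth inhibition of CP66-MEL cells determined in a cell viability assay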
Description: SANGER: Inhibition of human CP66-MEL cell growth in a cell viability assay.

SW1088 = assay type: functional, cell-based; settings: Homo sapiens;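 note: growth inhibition of human SW1088 cells, read out by a cell viability assay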
Description: SANGER: Inhibition of human SW1088 cell growth in a cell viability assay.

5637 = assay type: functional, cell-based; settings: Homo sapiens
Description: SANGER: Inhibition of human 5637 cell growth in a cell viability assay.

NCI-H630 = assay type: functional, cell-based; settings: Homo sapiens;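 note: growth inhibition of NCI-H630 cells, read out with a cell viability assay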
Description: SANGER: Inhibition of human NCI-H630 cell growth in a cell viability assay.

EW-24 = assay type: functional, cell-based, Homo sapiens; settings: Homo sapiens, EW-24;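 note: human EW-24 cancer cell line, growth inhibition read out via a cell viability assay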
Description: SANGER: Inhibition of human EW-24 cell growth in a cell viability assay.

NCI-H2009 = assay type: functional, cell-based; settings: Homo sapiens;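 note: cell viability assay measuring inhibition of NCI-H2009 cell growth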
Description: SANGER: Inhibition of human NCI-H2009 cell growth in a cell viability assay.

DOK = assay type: functional, cell-based; settings: Homo sapiens;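 note: cell viability assay read-out, values reflect inhibition of cell growth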
Description: SANGER: Inhibition of human DOK cell growth in a cell viability assay.

S-117 = assay type: functional, cell-based; settings: Homo sapiens
Description: SANGER: Inhibition of human S-117 cell growth in a cell viability assay.

Ca9-22 = assay type: functional, cell-based; settings: Homo sapiens;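 note: growth inhibition of Ca9-22 cells, read out with a cell viability assay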
Description: SANGER: Inhibition of human Ca9-22 cell growth in a cell viability assay.

SW1990 = assay type: functional, cell-based; settings: Homo sapiens;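 note: cell growth inhibition determined with a viability assay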
Description: SANGER: Inhibition of human SW1990 cell growth in a cell viability assay.

ABC-1 = assay type: functional, cell-based; settings: Homo sapiens;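 note: growth inhibition of human ABC-1 cells, read out by a cell viability assay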
Description: SANGER: Inhibition of human ABC-1 cell growth in a cell viability assay.

COR-L105 = assay type: functional, cell-based; settings: Homo sapiens;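 note: cell growth inhibition determined with a viability assay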
Description: SANGER: Inhibition of human COR-L105 cell growth in a cell viability assay.

SMILES: NC(=O)Nc1cc(-c2cccc(F)c2)sc1C(=O)N[C@H]1CCCNC1 [AZD-7762]
- IC50 (639-V): 1170 nM
- IC50 (HCC1395): 271 nM
- IC50 (SAS): 1270 nM
- IC50 (DMS-273): 755 nM
- IC50 (NCI-H2347): 1240 nM
- IC50 (HT-29): 894 nM
- IC50 (CAL-27): > 2000 nM
- IC50 (Detroit 562): 333 nM
- IC50 (SW837): > 2000 nM
- IC50 (SK-N-AS): 188 nM
- IC50 (ACHN): 134 nM
- IC50 (NB17): 158 nM
- IC50 (HCC 2998): 317 nM
- IC50 (VMRC-RCZ): 906 nM
- IC50 (MDA-MB-157): 86.6 nM
- IC50 (NCI-H650): 1420 nM
- IC50 (SF-295): 298 nM
- IC50 (A2780): 432 nM
- IC50 (PA-1): 750 nM
- IC50 (MC-IXC): 128 nM
- IC50 (J82): 805 nM
- IC50 (NCI-H810): > 2000 nM
- IC50 (UMUC3): 903 nM
- IC50 (A 172): 692 nM
- IC50 (Panc1005): > 2000 nM
- IC50 (MDA-MB-415): > 2000 nM
- IC50 (ME-180): 1720 nM
- IC50 (HuP-T3): 87.1 nM
- IC50 (YKG-1): 1580 nM
- IC50 (CP66-MEL): > 2000 nM
- IC50 (SW1088): 916 nM
- IC50 5637: 193 nM
- IC50 (NCI-H630): 1790 nM
- IC50 (EW-24): 289 nM
- IC50 (NCI-H2009): > 2000 nM
- IC50 (DOK): > 2000 nM
- IC50 (S-117): 1040 nM
- IC50 (Ca9-22): 541 nM
- IC50 (SW1990): 384 nM
- IC50 (ABC-1): 261 nM
- IC50 (COR-L105): 222 nM

SMILES: Cc1ccc(-n2nc(C(C)(C)C)cc2NC(=O)Nc2ccc(OCCN3CCOCC3)c3ccccc23)cc1 [DORAMAPIMOD]
- IC50 (639-V): > 10000 nM
- IC50 (HCC1395): > 10000 nM
- IC50 (SAS): > 10000 nM
- IC50 (DMS-273): > 10000 nM
- IC50 (NCI-H2347): > 10000 nM
- IC50 (HT-29): > 10000 nM
- IC50 (CAL-27): > 10000 nM
- IC50 (Detroit 562): > 10000 nM
- IC50 (SW837): > 10000 nM
- IC50 (SK-N-AS): > 10000 nM
- IC50 (ACHN): > 10000 nM
- IC50 (NB17): > 10000 nM
- IC50 (HCC 2998): > 10000 nM
- IC50 (VMRC-RCZ): > 10000 nM
- IC50 (MDA-MB-157): > 10000 nM
- IC50 (NCI-H650): > 10000 nM
- IC50 (SF-295): > 10000 nM
- IC50 (A2780): > 10000 nM
- IC50 (PA-1): > 10000 nM
- IC50 (MC-IXC): > 10000 nM
- IC50 (J82): > 10000 nM
- IC50 (NCI-H810): > 10000 nM
- IC50 (UMUC3): > 10000 nM
- IC50 (A 172): > 10000 nM
- IC50 (Panc1005): > 10000 nM
- IC50 (MDA-MB-415): > 10000 nM
- IC50 (ME-180): > 10000 nM
- IC50 (HuP-T3): > 10000 nM
- IC50 (YKG-1): > 10000 nM
- IC50 (CP66-MEL): > 10000 nM
- IC50 (SW1088): > 10000 nM
- IC50 5637: > 10000 nM
- IC50 (NCI-H630): > 10000 nM
- IC50 (NCI-H2009): > 10000 nM
- IC50 (DOK): > 10000 nM
- IC50 (S-117): > 10000 nM
- IC50 (Ca9-22): > 10000 nM
- IC50 (SW1990): > 10000 nM
- IC50 (ABC-1): > 10000 nM
- IC50 (COR-L105): > 10000 nM

SMILES: CN(NC(=O)CC(=O)NN(C)C(=S)c1ccccc1)C(=S)c1ccccc1 [ELESCLOMOL]
- IC50 (639-V): 16.7 nM
- IC50 (HCC1395): 8.47 nM
- IC50 (SAS): 22.5 nM
- IC50 (DMS-273): 7.06 nM
- IC50 (NCI-H2347): 28.7 nM
- IC50 (HT-29): > 200 nM
- IC50 (CAL-27): 33.4 nM
- IC50 (Detroit 562): 68.9 nM
- IC50 (SW837): 107 nM
- IC50 (SK-N-AS): 30 nM
- IC50 (ACHN): > 200 nM
- IC50 (NB17): 8.94 nM
- IC50 (HCC 2998): 111 nM
- IC50 (VMRC-RCZ): 108 nM
- IC50 (MDA-MB-157): 2.92 nM
- IC50 (NCI-H650): 36.6 nM
- IC50 (SF-295): 9.2 nM
- IC50 (A2780): 0.594 nM
- IC50 (PA-1): 8.84 nM
- IC50 (MC-IXC): 7.17 nM
- IC50 (J82): 14.1 nM
- IC50 (NCI-H810): 125 nM
- IC50 (UMUC3): 7.06 nM
- IC50 (A 172): 20.9 nM
- IC50 (Panc1005): 110 nM
- IC50 (MDA-MB-415): 137 nM
- IC50 (ME-180): 16.2 nM
- IC50 (HuP-T3): 55.8 nM
- IC50 (YKG-1): 12.6 nM
- IC50 (CP66-MEL): 55.1 nM
- IC50 (SW1088): 82.1 nM
- IC50 5637: 35.5 nM
- IC50 (NCI-H630): > 200 nM
- IC50 (EW-24): 3.83 nM
- IC50 (NCI-H2009): > 200 nM
- IC50 (DOK): 17.9 nM
- IC50 (S-117): 27.4 nM
- IC50 (Ca9-22): 4.25 nM
- IC50 (SW1990): 4.32 nM
- IC50 (ABC-1): 0.365 nM
- IC50 (COR-L105): 6.76 nM

SMILES: CC1=C(/C=C/C(C)=C/C=C/C(C)=C/C(=O)O)C(C)(C)CCC1 [TRETINOIN]
- IC50 (639-V): > 10000 nM
- IC50 (HCC1395): > 10000 nM
- IC50 (SAS): > 10000 nM
- IC50 (DMS-273): > 10000 nM
- IC50 (NCI-H2347): > 10000 nM
- IC50 (HT-29): > 10000 nM
- IC50 (CAL-27): > 10000 nM
- IC50 (Detroit 562): > 10000 nM
- IC50 (SW837): > 10000 nM
- IC50 (SK-N-AS): > 10000 nM
- IC50 (ACHN): > 10000 nM
- IC50 (NB17): > 10000 nM
- IC50 (HCC 2998): > 10000 nM
- IC50 (VMRC-RCZ): > 10000 nM
- IC50 (MDA-MB-157): > 10000 nM
- IC50 (NCI-H650): > 10000 nM
- IC50 (SF-295): > 10000 nM
- IC50 (A2780): > 10000 nM
- IC50 (PA-1): > 10000 nM
- IC50 (MC-IXC): 154 nM
- IC50 (J82): > 10000 nM
- IC50 (NCI-H810): > 10000 nM
- IC50 (UMUC3): > 10000 nM
- IC50 (A 172): > 10000 nM
- IC50 (Panc1005): > 10000 nM
- IC50 (MDA-MB-415): > 10000 nM
- IC50 (ME-180): > 10000 nM
- IC50 (HuP-T3): > 10000 nM
- IC50 (YKG-1): > 10000 nM
- IC50 (CP66-MEL): > 10000 nM
- IC50 (SW1088): > 10000 nM
- IC50 5637: > 10000 nM
- IC50 (NCI-H630): > 10000 nM
- IC50 (EW-24): > 10000 nM
- IC50 (NCI-H2009): > 10000 nM
- IC50 (DOK): > 10000 nM
- IC50 (S-117): > 10000 nM
- IC50 (Ca9-22): > 10000 nM
- IC50 (SW1990): > 10000 nM
- IC50 (ABC-1): > 10000 nM
- IC50 (COR-L105): > 10000 nM

SMILES: NC(=O)c1ccc(N(C(N)=O)c2c(F)cccc2F)nc1-c1ccc(F)cc1F [VX-702]
- IC50 (639-V): > 2000 nM
- IC50 (HCC1395): > 2000 nM
- IC50 (SAS): > 2000 nM
- IC50 (DMS-273): > 2000 nM
- IC50 (NCI-H2347): > 2000 nM
- IC50 (HT-29): > 2000 nM
- IC50 (CAL-27): > 2000 nM
- IC50 (Detroit 562): > 2000 nM
- IC50 (SW837): > 2000 nM
- IC50 (SK-N-AS): > 2000 nM
- IC50 (ACHN): > 2000 nM
- IC50 (NB17): > 2000 nM
- IC50 (HCC 2998): > 2000 nM
- IC50 (VMRC-RCZ): > 2000 nM
- IC50 (MDA-MB-157): > 2000 nM
- IC50 (NCI-H650): > 2000 nM
- IC50 (SF-295): > 2000 nM
- IC50 (A2780): > 2000 nM
- IC50 (PA-1): > 2000 nM
- IC50 (MC-IXC): > 2000 nM
- IC50 (J82): > 2000 nM
- IC50 (NCI-H810): > 2000 nM
- IC50 (UMUC3): > 2000 nM
- IC50 (A 172): > 2000 nM
- IC50 (Panc1005): > 2000 nM
- IC50 (MDA-MB-415): > 2000 nM
- IC50 (ME-180): > 2000 nM
- IC50 (HuP-T3): > 2000 nM
- IC50 (YKG-1): > 2000 nM
- IC50 (CP66-MEL): > 2000 nM
- IC50 (SW1088): > 2000 nM
- IC50 5637: > 2000 nM
- IC50 (NCI-H630): > 2000 nM
- IC50 (EW-24): > 2000 nM
- IC50 (NCI-H2009): > 2000 nM
- IC50 (DOK): > 2000 nM
- IC50 (S-117): > 2000 nM
- IC50 (Ca9-22): > 2000 nM
- IC50 (SW1990): > 2000 nM
- IC50 (ABC-1): > 2000 nM
- IC50 (COR-L105): > 2000 nM
